Data on 16 compounds can be found in patent US4224325A, “3-(1-Pyrazolyl)-pyridazine derivatives and hypotensive compositions thereof” (Richter Gedeon Vegyeszeti Gyar Rt., priority 1977, dated 1980).

Read-outs that look alike come from different tables or passages of the source.

One data set in a line: in vivo. The note with it: mouse, po.
Another data set concerns cats. The experiment in a line: Hypotensive action in narcotized cats (decrease in blood pressure). The note with it: cats narcotized i.p. by 30 mg/kg Pentobarbital. It is filed as in vivo.
Data set [1] addresses T1, prostaglandin dehydrogenase (PGDH) (Sus scrofa, UniProt A0ACM8QJV0).
T1 construct: on a PGDH preparation from pig lung; from tissue; host or cells: pig lung
T1 sequence (A0ACM8QJV0 1-266): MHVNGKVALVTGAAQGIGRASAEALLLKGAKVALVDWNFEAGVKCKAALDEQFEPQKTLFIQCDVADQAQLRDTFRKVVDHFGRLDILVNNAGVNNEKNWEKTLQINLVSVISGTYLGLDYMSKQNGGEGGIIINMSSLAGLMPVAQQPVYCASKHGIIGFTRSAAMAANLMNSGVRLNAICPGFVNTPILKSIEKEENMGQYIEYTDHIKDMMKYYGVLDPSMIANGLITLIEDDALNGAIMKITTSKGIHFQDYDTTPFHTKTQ
The experiment in a line: Prostaglandin dehydrogenase (PGDH) inhibiting action, method of Marrazzi and Matschinsky, PGDH preparation from pig lung. It is filed as biochemical. The source says:
(§1) The I50%, i.e. the index of inhibition, is defined as the concentration of the substance inhibiting to 50% the function of the corresponding enzyme.

The target of data set [2] is prostaglandin-A isomerase (PGAI). Description: Prostaglandin-A isomerase (PGAI) inhibiting action, method of Jones et al., PGAI preparation from blood plasma of pigs. It is filed as biochemical. Conditions: concentration inhibiting enzyme function to 50%; PGAI from pig blood plasma; read-out: I50% inhibiting level in final concentration, PGAI.
Excerpt: as §1

A short description of data set [3]: Tachycardia (inability to cause, compared with Hydralazine). It is filed as in vivo. The note with it: against Hydralazine.
Another data set has as its system mice. The note with it: against Hydralazine.
The subject of data set [4] is prostaglandin dehydrogenase and prostaglandin-A isomerase. Description: Inhibition of enzymes regulating prostaglandin catabolism (prostaglandin dehydrogenase and prostaglandin-A isomerase), in words. It is filed as biochemical. On the procedure:
The prostaglandin-A isomerase (PGAI) inhibiting action of the compounds according to the invention was measured by the method of Jones et al. (Biochim. Biophys. Acta 280, 558, 1972) on a PGAI preparation from the blood plasma of pigs, whereas the prostaglandin dehydrogenase (PGDH) inhibiting action was determined by the method of Marrazzi and Matschinsky (Prostaglandins 1, 373, 1972); on a PGDH preparation from pig lung.

Data set [5] relates to spontaneously hypertensive (Wistar-Okamoto) rats. Description: Hypotensive action in spontaneously hypertensive rats, systolic blood pressure in caudal artery by indirect method after oral treatment. Conditions: dose equal to Hydralazine. The class given is in vivo. On the procedure:
The hypotensive action of substance 44 was studied also in spontaneously hypertensive (Wistar-Okamoto(rats)Arzneim.- forsch. 6, 222, 1956): the systolic blood pressure was measured in the caudal artery by an indirect method, after oral treatment.

[6] abbreviates: concentration inhibiting enzyme function to 50%, PGDH from pig lung, read-out: I50% inhibiting level in final concentration, PGDH.

Compound `CCc1nn(-c2ccc(NN)nn2)c(CC)c1N` [Example 46, 3-Hydrazino-6-(3,5-diethyl-4-amino-1-pyrazolyl)-pyridazine] had an LD50 in “in vivo” of 200 mg/kg. For the same compound, the “Decrease in blood pressure by 1 mg/kg” value in the data set with cats is on record as -50 Hgmm.

`CCc1cc(CC)n(-c2ccc(NN)nn2)n1` [Example 29, 3-Hydrazino-6-(3,5-diethyl-1-pyrazolyl)-pridazine] had an LD50 in the data set “in vivo” of around 150 mg/kg. Moreover, the “Decrease in blood pressure by 1 mg/kg” value in the data set with cats is given as -40 Hgmm.

On to `Cc1nn(-c2ccc(NN)nn2)c(C)c1Cl` [Example 34, 3-Hydrazino-6-(3,5-dimethyl-4-chloro-1-pyrazolyl)-pyridazine], for which, in the data set “in vivo”, the LD50 was above 200 mg/kg. In addition, the IC50 in data set [1] (setting [6]) was found to be 110 µM. The “Decrease in blood pressure by 1 mg/kg” value in the data set on cats is listed as -20 Hgmm.

As to `NNc1ccc(-n2nccc2N)nn1` [Example 40, 3-Hydrazino-6-(5-amino-1-pyrazolyl)-pyridazine], in the data set “in vivo”, the LD50 stood at 200 mg/kg. Moreover, the “Decrease in blood pressure by 1 mg/kg” value with cats is recorded as -30 Hgmm.

In the data set “in vivo”, `Cc1nn(-c2ccc(NNC(=O)OC(C)(C)C)nn2)c(C)c1N` [Example 56, 3-(2-tert-butoxycarbonyl-1-hydrazino)-6-(3,5-dimethyl-4-amino-1-pyrazolyl)-pyridazine] registered an LD50 of 200 mg/kg. Further, in the data set on cats, the “Decrease in blood pressure by 1 mg/kg” value was -35 Hgmm.

`C[C@]12CC[C@@H]3c4ccc(O)cc4CC[C@H]3[C@@H]1CCC2=O` [Estrone, reference compound]: in data set [1], the IC50 was 10 µM.

Consider `c1ccc(CNc2ccc(-n3nc(-c4ccccc4)cc3-c3ccccc3)nn2)cc1` [Example 21, 3-Benzylamino-6-(3,5-diphenyl-1-pyrazolyl)-pyridazine], for which, in data set [2], the IC50 is 20 µM.

For the compound `NNc1ccc(-n2nc(C3CC3)cc2C2CC2)nn1` [Example 26, 3-Hydrazino-6-(3,5-dicyclopropyl-1-pyrazolyl)-pyridazine], the LD50 in “in vivo” amounted to 100 mg/kg. Also, in the data set on cats, the “Decrease in blood pressure by 1 mg/kg” value is -40 Hgmm.

As to `Cc1nn(-c2ccc(NN)nn2)c(C)c1C` [Example 31, 3-Hydrazino-6-(3,4,5-trimethyl-1-pyrazolyl)-pridazine], the LD50 in “in vivo” is 100 mg/kg. The “Decrease in blood pressure by 1 mg/kg” value with cats is -15 Hgmm. In data set [2], the IC50 amounted to 60 µM.

In “in vivo”, `Cc1cc(C)n(-c2ccc(NN)nn2)n1` [Example 25, 3-hydrazino-6-(3,5-dimethyl-1-pyrazolyl)-pyridazine] came in with an LD50 of 200 mg/kg. The “Decrease in blood pressure by 1 mg/kg” value in the data set on cats is recorded as -30 Hgmm. Further, the IC50 in data set [2] was determined as 25 µM.

With `Cc1nn(-c2ccc(NN)nn2)c(C)c1N` [Example 44, 3-hydrazino-6-(3,5-dimethyl-4-amino-1-pyrazolyl)-pyridazine], the LD50 in “in vivo” was above 200 mg/kg. For the same compound, the Tachycardia result in data set [3] was “inability to cause tachycardia”. Further, the “Toxicity compared with Hydralazine” value with mice was “extraordinarily favorable toxicity”. Further, the “Prostaglandin catabolism inhibiting effect” value in data set [4] is listed as “prostaglandin catabolism inhibiting effect”. Further, in data set [5], the “Duration of effect compared with Hydralazine at equal dose” value was “same duration of effect” and the “Effectivity (systolic blood pressure) compared with Hydralazine at equal dose” value was “same effectivity”. This compound also had a Decrease in blood pressure by 1 mg/kg in the data set with cats of -40 Hgmm. In addition, the IC50 in data set [2] was 70 µM.

Regarding `Cc1cc(C)n(-c2ccc(N(C)C)nn2)n1` [Example 19, 3-Dimethylamino-6-(3,5-dimethyl-1-pyrizolyl)-pyridazine], the IC50 in data set [2] is 130 µM.

In the case of `Cc1nn(-c2ccc(NN)nn2)c(C)c1Br` [Example 35, 3-Hydrazini-6-(3,5-dimethyl-4-bromo-1-pyrazolyl)-pyridazine], the IC50 in data set [2] was 80 µM.

Compound `Cl.NNc1nncc2ccccc12` [Hydralazine, 1-hydrazinophthalazine hydrochloride, reference compound] displayed an LD50 in “in vivo” of 200 mg/kg. Further, the “Decrease in blood pressure by 1 mg/kg” value with cats is given as -40 Hgmm. Also, the IC50 in data set [2] is 90 µM.

`NNc1ccc(-n2cc(N)cn2)nn1` [Example 45, 3-Hydrazino-6-(4-amino-1-pyrazolyl)-pyridazine] returned an LD50 in “in vivo” of 200 mg/kg. Moreover, the “Decrease in blood pressure by 1 mg/kg” value in the data set on cats is given as -30 Hgmm.

Turning to `Cc1cc(C)n(-c2ccc(NCc3ccccc3)nn2)n1` [Example 17, 3-Benzylamino-6-(3,5-dimethyl-1-pyrazolyl)-pyridazine], the IC50 in data set [1] (setting [6]) was determined as 200 µM.

By LD50 is commonly meant the dose expected to kill half of the subjects tested.
